# Measurements: patent publication US11702409B2, “Pyrazolyl derivatives useful as anti-cancer agents” (NOVARTIS AG, priority 2019, dated 2023)
# Molecular target: KRasG12C (M1-K169, biotinylated on the N-terminus) (Homo sapiens (Human), UniProt P01116, G12C)
# Test: Covalent competition assay (scintillation proximity assay, competition with radiolabeled covalent probe Compound B)
# Type: binding
# Settings: covalent competition SPA assay, KRASG12C; read-out: IC50, titration of the non-labelled version of the probe
# In short: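 Biotinylated KRasG12C (M1-K169):GDP incubated 2 h with agitation with serially diluted compounds premixed with a fixed concentration of radiolabeled covalent probe; scintillation proximity read-out of competition for covalent modification. Buffer 20 mM Tris-HCl pH 7.5, 150 mM NaCl, 0.1 mM MgCl2, 0.01% Tween-20. IC50 from 4-parameter fit.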
row,IC50 [nM],SMILES
1,500,"C=CC(=O)Nc1ccc(-n2c(C)c(-c3c(C)ccc4[nH]ncc34)c3cccnc32)c(F)c1 [Compound A, N-(3-fluoro-4-(2-methyl-3-(5-methyl-1H-indazol-4-yl)-1H-pyrrolo[2,3-b]pyridin-1-yl)phenyl)acrylamide, reference compound]"

# Same assay, conditions: in vitro KRASG12C activity; 10 nM KRasG12C:GDP, 25 nM radio-ligand and 475 nM unlabelled ligand, incubated 2 hours; read-out: Covalent Competition Assay IC50
row,IC50 [nM],SMILES
1,806,"C=CC(=O)N1CC2(CC(n3nc(-c4cccnc4)c(-c4c(Cl)c(C)cc5[nH]ncc45)c3C(F)F)C2)C1 (single isomer, unassigned) [Example 87a]"
2,> 50000,"C=CC(=O)N1CC2(CC(n3nc(-c4cccnc4)c(-c4c(Cl)c(C)cc5[nH]ncc45)c3C(F)F)C2)C1 (single isomer, unassigned) [Example 87b]"
3,2300,"C=CC(=O)N1CC2(CC(n3nc(-c4cccnc4C)c(-c4c(Cl)ccc5[nH]ncc45)c3C)C2)C1 (single isomer, unassigned) [Example 89a]"
4,25500,"C=CC(=O)N1CC2(CC(n3nc(-c4cccnc4C)c(-c4c(Cl)ccc5[nH]ncc45)c3C)C2)C1 (single isomer, unassigned) [Example 89b]"
5,3500,"C=CC(=O)N1CC2(CC(n3nc(-c4cnc(OC)nc4)c(-c4c(Cl)ccc5[nH]ncc45)c3C)C2)C1 (single isomer, unassigned) [Example 90a]"
6,> 50000,"C=CC(=O)N1CC2(CC(n3nc(-c4cnc(OC)nc4)c(-c4c(Cl)ccc5[nH]ncc45)c3C)C2)C1 (single isomer, unassigned) [Example 90b]"
7,5300,"C=CC(=O)N1CC2(CC(n3nc(-c4cccc(=O)n4C)c(-c4c(Cl)ccc5[nH]ncc45)c3C)C2)C1 (single isomer, unassigned) [Example 91a]"
8,25300,"C=CC(=O)N1CC2(CC(n3nc(-c4cccc(=O)n4C)c(-c4c(Cl)ccc5[nH]ncc45)c3C)C2)C1 (single isomer, unassigned) [Example 91b]"
9,1400,"C=CC(=O)N1CC2(CC(n3nc(-c4cc(C)nn4CCN(C)C)c(-c4c(Cl)c(C)cc5[nH]ncc45)c3C)C2)C1 (single isomer, unassigned) [Example 92a]"
10,43000,"C=CC(=O)N1CC2(CC(n3nc(-c4cc(C)nn4CCN(C)C)c(-c4c(Cl)c(C)cc5[nH]ncc45)c3C)C2)C1 (single isomer, unassigned) [Example 92b]"
11,310,C=CC(=O)N1CC2(CC(n3nc(-c4ccc5cn[nH]c5c4)c(-c4c(Cl)c(C)cc5[nH]ncc45)c3C)C2)C1 [Example 14]
12,49,"C=CC(=O)N1CC2(CC(n3nc(-c4ccc(CN5CCCC5=O)cc4)c(-c4c(Cl)c(C)cc5[nH]ncc45)c3C)C2)C1 [Example 48, 1-(4-(1-(2-acryloyl-2-azaspiro[3.3]heptan-6-yl)-4-(5-chloro-6-methyl-1H-indazol-4-yl)-5-methyl-1H-pyrazol-3-yl)benzyl)pyrrolidin-2-one]"
13,320,"C=CC(=O)N1CC2(CC(n3nc(-c4ccc(-n5ccc(N)n5)nc4)c(-c4c(Cl)c(C)cc5[nH]ncc45)c3C)C2)C1 [Example 53, 1-(6-(3-(6-(3-amino-1H-pyrazol-1-yl)pyridin-3-yl)-4-(5-chloro-6-methyl-1H-indazol-4-yl)-5-methyl-1H-pyrazol-1-yl)-2-azaspiro[3.3]heptan-2-yl)prop-2-en-1-one]"
14,216,"C=CC(=O)N1CC2(CC(n3nc(-c4ccc(OC)nc4)c(-c4c(Cl)c(C)cc5[nH]ncc45)c3C)C2)C1 [Example 78a, 1-(6-(4-(5-chloro-6-methyl-1H-indazol-4-yl)-3-(6-methoxypyridin-3-yl)-5-methyl-1H-pyrazol-1-yl)-2-azaspiro[3.3]heptan-2-yl)prop-2-en-1-one]"
15,92,"C=CC(=O)N1CC2(CC(n3nc(-c4ccc(N)nc4)c(-c4c(Cl)c(C)cc5[nH]ncc45)c3C)C2)C1 [Example 79a, 1-(6-(3-(6-aminopyridin-3-yl)-4-(5-chloro-6-methyl-1H-indazol-4-yl)-5-methyl-1H-pyrazol-1-yl)-2-azaspiro[3.3]heptan-2-yl)prop-2-en-1-one]"
16,13500,C=CC(=O)N1CC2(CC(n3nc(-c4cccnc4)c(-c4c(Cl)c(C)cc5[nH]ncc45)c3CC#N)C2)C1 [Example 88]
17,2300,"C=CC(=O)N1CC2(CC(n3nc(-c4ccc5c(cnn5C)c4)c(-c4cc(O)ccc4Cl)c3C)C2)C1 [Example 94, 1-(6-(4-(2-chloro-5-hydroxyphenyl)-5-methyl-3-(1-methyl-1H-indazol-5-yl)-1H-pyrazol-1-yl)-2-azaspiro[3.3]heptan-2-yl)prop-2-en-1-one]"

row,SMILES,IC50 [nM]
1,C=CC(=O)N1CC2(CC(n3nc(-c4cc5cn(C)nc5cn4)c(-c4c(Cl)c(C)cc5[nH]ncc45)c3C)C2)C1 [Example 77],195

# Molecular target: KRasG12C (Homo sapiens (Human), UniProt P01116, G12C)
# Test: MS-based assay (% modification for a range of compound concentrations and time points)
# Type: biochemical
# Settings: internally determined, non-labeled ligand; read-out: (kinact/KI)probe, second order rate constant for modification of KRasG12C
row,kinact/KI [M⁻¹ s⁻¹],SMILES
1,~5000,"C=CC(=O)Nc1ccc(-n2c(C)c(-c3c(C)ccc4[nH]ncc34)c3cccnc32)c(F)c1 [Compound A, N-(3-fluoro-4-(2-methyl-3-(5-methyl-1H-indazol-4-yl)-1H-pyrrolo[2,3-b]pyridin-1-yl)phenyl)acrylamide, reference compound]"
